The record followed here is US20150216168A1, “USE OF SUBSTITUTED 2-AMIDOBENZIMIDAZOLES, 2-AMIDOBENZOXAZOLES AND 2-AMIDOBENZOTHIAZOLES OR SALTS THEREOF AS ACTIVE SUBSTANCES AGAINST ABIOTIC PLANT STRESS” (BAYER CROPSCIENCE AG, priority 2012, published 2015).

The test system of one assay is Zea mays. In words: Drought stress test on greenhouse crop plants, spray application, corn. It counts as in vivo. As to conditions: 250 g/ha. How it is done: (§1) Seeds of monocotyledonous and dicotyledonous crop plants were laid out in sandy loam in wood-fiber pots, covered with soil or sand and cultivated in a greenhouse under good growth conditions. The test plants were treated at the early leaf stage (BBCH10-BBCH13). To assure uniform water supply before commencement of stress, the potted plants were supplied with water by dam irrigation prior to substance application. The compounds according to the invention, formulated in the form of wettable powders (WP), were sprayed onto the green parts of the plants as an aqueous suspension at an equivalent water application rate of 600 I/ha with addition of 0.2% wetting agent (e.g. agrotin). Substance application was followed immediately by stress treatment of the plants. For this purpose, the pots were transferred into plastic inserts in order to prevent them from subsequently drying out too quickly. Drought stress was induced by gradual drying out under the following conditions:
(§2) “Day”: 14 hours with illumination at 26° C. […]
(§3) After the recovery phase had ended, the intensities of damage were analyzed in visual comparison to untreated, unstressed controls for the same age. The intensity of damage was first recorded as a percentage (100%=plants have died, 0%=like control plants). […]
(§4) In each trial, 3 pots per crop and dosage were treated and evaluated; the resulting efficacies are thus averages. […]

The test system of another assay is Hordeum vulgare. In words: Drought stress test on greenhouse crop plants, spray application, barley. The assay is classed as in vivo. As to conditions: 500 g/ha. How it is done: as §1, §2, §3, §4

Each structure is given as a SMILES string.

On to `NC(=O)c1cccc2oc(-c3ccc(Cl)cc3Cl)nc12` [B1-18, 2-(2,4-Dichlorophenyl)-1,3-benzoxazole-4-carboxamide], for which the “EF (ZEAMX): efficacy, percentage reduction in the intensity of damage” value in the assay on Zea mays is on record as over 5%. In the assay on Hordeum vulgare, the “EF (HORVS): efficacy, percentage reduction in the intensity of damage” value is recorded as over 5%.
